Consider 8 molecules from patent US7282356B2, “D-aminoacylase mutants” (Daicel Chemical Industries, Ltd., priority 2002, dated 2007).

Series [1] has as its target T1, Alcaligenes denitrificans subsp. xylosoxydans MI-4 D-aminoacylase mutant 3AD-0089 (A154V/M347A/R374F of SEQ ID NO: 1) (Alcaligenes xylosoxydans xylosoxydans, UniProt P72349, A154V/M347A/R374F).
T1 construct: made in house; host or cells: E. coli
Put plainly: Inhibition/kinetics test of purified mutant D-aminoacylase 3AD-0089. Type of series: biochemical. As for the experimental part:
(§1) The enzyme reaction can be achieved by incubating 1.0 ml of a reaction solution containing 20 mM N-acetyl-D-tryptophan (Sigma), 50 mM Tris-hydrochloride buffer (pH 7.5), and an enzyme solution at 30° C. for 10 minutes. Then, the reaction is stopped by adding 0.5 ml of a stop solution containing TCA (comprising 0.11 M trichloroacetic acid, 0.22 M sodium acetate, and 0.33 M acetic acid). The amount of D-tryptophan produced can be determined by TNBS method (Biosci. Biotech. Biochem., 58, 24 (1994)).
(§2) For example, 0.25 ml of 100 mM Na2B4O7 is added to 0.25 ml of the stop solution, 10 μl of 110 mM TNBS (trinitrobenzenesulfonic acid) solution is added to the mixed solution, and immediately thereafter, the resulting mixture is stirred. After the mixture is allowed to stand for five minutes, 1 ml of 100 mM NaHPO4 containing 1.5 mM Na2SO3 is added to the mixture to stop the color reaction. Then, the absorbance of the solution is determined at 420 nm. One unit of the enzyme activity is defined as the amount of enzyme that catalyzes the production of 1 μmol of D-tryptophan at 30° C. for one minute.
(§3) The rate constants of the reaction with N-acetyl-D-tryptophan and N-acetyl-L-tryptophan that is catalyzed by the thus-purified wild-type derived from Alcaligenes denitrificans subsp. xylosoxydans MI-4 or mutant D-aminoacylases of the present invention, can be determined according to the methods described in “Lectures for Biochemical Experiments 21: Introduction to Experimental Approach to Enzyme Kinetics” and “Basic Experimental Methods for Proteins and Enzymes, 2nd Ed.” Michaelis constant is represented by Km; the maximal rate is Vmax; inhibition constant is Ki; the constant for reaction inhibition by excess substrate is Ks′.
(§4) The mutant D-aminoacylase 3AD-0089 was purified from an E. coli transformant having the plasmid pSL-AD10 that contains DNA encoding the mutant D-aminoacylase 3AD-0089 by the same method as described in Example 19.
(§5) The D-aminoacylases purified in Examples 20 to 23 were tested for the inhibition by N-acetyl-D-tryptophan and N-acetyl-L-tryptophan. The reaction rate constants for N-acetyl-D-tryptophan and N-acetyl-L-tryptophan were determined according to the methods described in “Lectures for Biochemical Experiments 21: Introduction to Experimental Approach to Enzyme Kinetics” and “Basic Experimental Methods for Proteins and Enzymes, 2nd Ed.” Michaelis constant is represented by Km; the maximal rate is Vmax; inhibition constant is Ki; the constant for reaction inhibition by excess substrate is represented by Ks′. Km and Vmax were determined from a Lineweaver-Burk reciprocal plot; Ki was determined from a second-order plot (Royer); and Ks′ was determined from a [S] −1/v plot.

The target of series [2] is T2, Alcaligenes denitrificans subsp. xylosoxydans MI-4 D-aminoacylase mutant M347-0133 (M347A of SEQ ID NO: 1) (Alcaligenes xylosoxydans xylosoxydans, UniProt P72349, M347A).
T2 construct: made in house; host or cells: E. coli
T2 sequence (P72349 whole entry M347A): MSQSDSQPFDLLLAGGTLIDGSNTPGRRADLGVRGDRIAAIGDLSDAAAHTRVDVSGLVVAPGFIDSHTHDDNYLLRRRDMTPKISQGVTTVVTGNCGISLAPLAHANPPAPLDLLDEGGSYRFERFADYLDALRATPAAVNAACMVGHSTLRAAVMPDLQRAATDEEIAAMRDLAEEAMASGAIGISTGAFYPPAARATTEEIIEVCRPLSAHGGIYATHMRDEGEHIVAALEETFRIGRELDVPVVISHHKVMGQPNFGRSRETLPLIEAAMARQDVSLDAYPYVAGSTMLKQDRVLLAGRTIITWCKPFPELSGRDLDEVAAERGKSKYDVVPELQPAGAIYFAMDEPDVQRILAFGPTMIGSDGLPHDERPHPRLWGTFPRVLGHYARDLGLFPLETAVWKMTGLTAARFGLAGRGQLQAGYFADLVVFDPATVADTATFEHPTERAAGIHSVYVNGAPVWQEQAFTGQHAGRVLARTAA
Put plainly: Inhibition/kinetics test of purified mutant D-aminoacylase M347-0133. The class given is biochemical. As for the experimental part: as §1, §2, §3
(§6) The mutant D-aminoacylase M347-0133 was purified from an E. coli transformant having the plasmid pSL-AD08 that contains DNA encoding the mutant D-aminoacylase M347-0133 by the same method as described in Example 19.
as §5

Series [3] has as its target Alcaligenes denitrificans subsp. xylosoxydans MI-4 D-aminoacylase, wild-type, SEQ ID NO: 1 (Alcaligenes xylosoxydans xylosoxydans, UniProt P72349). Put plainly: Inhibition/kinetics test of purified wild-type D-aminoacylase.
The subject of series [4] is Nocardioides thermolilacinus D-aminoacylase. To be noted: at concentrations as high as 100 g/l; cited from earlier work.
Series [5] has as its target T3, Alcaligenes denitrificans subsp. xylosoxydans MI-4 D-aminoacylase mutant A154-0043 (A154V of SEQ ID NO: 1) (Alcaligenes xylosoxydans xylosoxydans, UniProt P72349, A154V).
T3 construct: made in house; host or cells: E. coli
The series is described as follows: Inhibition/kinetics test of purified mutant D-aminoacylase A154-0043. The class given is biochemical. How it is done:
as §1, §2, §3
(§7) The mutant D-aminoacylase A154-0043 was purified from an E. coli transformant having the plasmid pSL-AD07 that contains DNA encoding the mutant D-aminoacylase A154-0043 by the same method as described in Example 19.
as §5

In series [6] the target is T4, Alcaligenes denitrificans subsp. xylosoxydans MI-4 D-aminoacylase mutant R374-0017 (R374F of SEQ ID NO: 1) (Alcaligenes xylosoxydans xylosoxydans, UniProt P72349, R374F).
T4 construct: made in house; host or cells: E. coli
T4 sequence (P72349 whole entry R374F): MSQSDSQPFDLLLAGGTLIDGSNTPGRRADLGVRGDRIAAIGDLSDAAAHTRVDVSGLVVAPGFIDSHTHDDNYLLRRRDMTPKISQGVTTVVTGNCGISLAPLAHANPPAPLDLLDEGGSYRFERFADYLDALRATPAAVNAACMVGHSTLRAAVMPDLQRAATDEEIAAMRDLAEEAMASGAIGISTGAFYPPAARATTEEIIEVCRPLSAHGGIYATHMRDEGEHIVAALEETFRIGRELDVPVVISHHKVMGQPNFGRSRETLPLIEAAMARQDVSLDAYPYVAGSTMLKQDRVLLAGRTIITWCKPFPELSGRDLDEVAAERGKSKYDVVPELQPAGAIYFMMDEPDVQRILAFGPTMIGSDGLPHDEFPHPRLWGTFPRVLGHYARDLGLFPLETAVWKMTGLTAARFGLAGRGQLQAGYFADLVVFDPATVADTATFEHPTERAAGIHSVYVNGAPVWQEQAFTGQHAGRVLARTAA
The series is described as follows: Inhibition/kinetics test of purified mutant D-aminoacylase R374-0017. Type of series: biochemical. How it is done: as §1, §2, §3
(§8) The mutant D-aminoacylase R374-0017 was purified from an E. coli transformant having the plasmid pSL-AD09 that contains DNA encoding the mutant D-aminoacylase R374-0017 by the same method as described in Example 19.
as §5

The subject of series [7] is Methylobacterium mesophilicum D-aminoacylase. To be noted: at concentrations as high as 100 g/l; cited from earlier work.
Series [8] has as its system CC(=O)N[C@H](Cc1c[nH]c2ccccc12)C(=O)O. Put plainly: Inhibition/kinetics test of purified mutant D-aminoacylase 3AD-0089. The class given is biochemical, Alcaligenes denitrificans subsp. xylosoxydans MI-4. The conditions noted are these: other: 30° C., pH7.5, for N-acetyl-D-tryptophan, pH 7.5. How it is done: as §1, §2, §3, §4, §5
Series [9] shares this test system. The series is described as follows: Inhibition/kinetics test of purified mutant D-aminoacylase A154-0043. Type of series: biochemical, Alcaligenes denitrificans subsp. xylosoxydans MI-4. To be noted: other: 30° C., pH7.5, for N-acetyl-D-tryptophan, pH 7.5. How it is done: as §1, §2, §3, §7, §5
For series [10] the test system is unchanged. The series is described as follows: Inhibition/kinetics test of purified mutant D-aminoacylase M347-0133. The class given is biochemical, Alcaligenes denitrificans subsp. xylosoxydans MI-4. To be noted: other: 30° C., pH7.5, for N-acetyl-D-tryptophan, pH 7.5. How it is done: as §1, §2, §3, §6, §5
Series [11] shares this test system. The series is described as follows: Inhibition/kinetics test of purified mutant D-aminoacylase R374-0017. Type of series: biochemical, Alcaligenes denitrificans subsp. xylosoxydans MI-4. To be noted: other: 30° C., pH7.5, for N-acetyl-D-tryptophan, pH 7.5. As for the experimental part: as §1, §2, §3, §8, §5
Series [12] shares this test system. The series is described as follows: purified protein, by the assay type. The conditions noted are these: other: 30° C., pH7.5, for N-acetyl-D-tryptophan, pH 7.5.
Series [13] is described as follows: D-aminoacylase activity assay (20 mM N-acetyl-D-tryptophan, TNBS method). Type of series: biochemical. The conditions noted are these: cell extract of E. coli JM109 transformant. How it is done:
as §1, §2

[14] abbreviates: 30° C., pH7.5, for N-acetyl-D-tryptophan.
Where [15] appears, read: 30° C., pH7.5, substrate inhibition by N-acetyl-D-tryptophan.

T1 sequence (P72349 whole entry A154V/M347A/R374F): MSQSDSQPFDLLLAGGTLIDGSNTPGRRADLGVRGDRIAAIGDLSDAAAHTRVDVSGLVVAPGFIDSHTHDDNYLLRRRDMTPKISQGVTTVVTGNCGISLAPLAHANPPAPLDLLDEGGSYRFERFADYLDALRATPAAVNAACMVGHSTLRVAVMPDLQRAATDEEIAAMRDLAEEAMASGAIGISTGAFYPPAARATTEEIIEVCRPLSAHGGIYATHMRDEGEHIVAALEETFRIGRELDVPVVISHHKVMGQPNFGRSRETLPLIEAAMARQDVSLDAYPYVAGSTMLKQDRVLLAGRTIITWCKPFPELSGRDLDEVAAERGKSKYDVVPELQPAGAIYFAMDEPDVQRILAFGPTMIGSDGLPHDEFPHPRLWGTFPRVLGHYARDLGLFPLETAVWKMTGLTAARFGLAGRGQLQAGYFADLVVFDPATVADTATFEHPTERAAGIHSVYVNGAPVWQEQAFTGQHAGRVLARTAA
T3 sequence (P72349 whole entry A154V): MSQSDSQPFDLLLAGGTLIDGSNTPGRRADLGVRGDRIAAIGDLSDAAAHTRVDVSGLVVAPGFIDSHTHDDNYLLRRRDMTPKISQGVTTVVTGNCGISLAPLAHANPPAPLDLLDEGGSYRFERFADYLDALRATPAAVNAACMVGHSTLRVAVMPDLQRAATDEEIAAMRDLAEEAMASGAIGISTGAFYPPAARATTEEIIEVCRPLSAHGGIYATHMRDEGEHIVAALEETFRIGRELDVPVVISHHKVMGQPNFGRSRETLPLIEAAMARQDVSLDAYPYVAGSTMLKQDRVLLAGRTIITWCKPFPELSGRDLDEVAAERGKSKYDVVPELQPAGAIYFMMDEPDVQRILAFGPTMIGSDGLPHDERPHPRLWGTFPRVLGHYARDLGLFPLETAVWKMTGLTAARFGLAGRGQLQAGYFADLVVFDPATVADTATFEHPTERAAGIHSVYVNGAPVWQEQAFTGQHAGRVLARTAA

Regarding `CC(=O)N[C@H](Cc1c[nH]c2ccccc12)C(=O)O` [N-acetyl-D-tryptophan], the “Vmax (Lineweaver-Burk reciprocal plot)” value in series [1] (setting [14]) amounted to 357; in series [2] (setting [14]) it was 1000; in series [3] (setting [14]), 685; in [5] (setting [14]), 1031; in series [6] (setting [14]) it was 1000. For the same molecule, in series [1] (in the presence of 99 mM N-acetyl-D-tryptophan), the substrate inhibition result was “not detectable”. Further, the “Ks′ (constant for reaction inhibition by excess substrate; [S]−1/v plot)” value in series [2] (setting [15]) is 77.00; in [3] (setting [15]) it was 1.29; in series [5] (setting [15]), 13.67; in series [6] (setting [15]), 93.00. Moreover, the “inhibition by the substrate” value in [4] and in series [7] was “hardly inhibited” throughout.
Regarding `CC(=O)N[C@@H](Cc1c[nH]c2ccccc12)C(=O)O` [N-acetyl-L-tryptophan], in series [1] (in the presence of 89 mM N-acetyl-L-tryptophan), the competitive inhibition entry was “not detectable”. Besides, the inhibition constant (Ki) in series [2] was found to be 12.3 mM; in series [3] it was 2.6 mM; in series [5] it was 6.4 mM; in [6], 7.46 mM.
In the case of “Alcaligenes denitrificans subsp. xylosoxydans MI-4 D-aminoacylase mutant 3AD-0089 (A154V/M347A/R374F of SEQ ID NO: 1) (Achromobacter xylosoxidans; A154V/M347A/R374F)”, the Michaelis-Menten constant (Km) in series [8] was found to be 1460 µM.
Turning to “Alcaligenes denitrificans subsp. xylosoxydans MI-4 D-aminoacylase mutant A154-0043 (A154V of SEQ ID NO: 1) (Achromobacter xylosoxidans; A154V)”, in series [9], the Michaelis-Menten constant (Km) worked out at 3440 µM.
As to “Alcaligenes denitrificans subsp. xylosoxydans MI-4 D-aminoacylase mutant M347-0133 (M347A of SEQ ID NO: 1) (Achromobacter xylosoxidans; M347A)”, the Km in series [10] was found to be 1420 µM.
On to “Alcaligenes denitrificans subsp. xylosoxydans MI-4 D-aminoacylase mutant R374-0017 (R374F of SEQ ID NO: 1) (Achromobacter xylosoxidans; R374F)”, for which the Km in [11] was determined as 1940 µM.
Consider “Alcaligenes denitrificans subsp. xylosoxydans MI-4 D-aminoacylase, wild-type, SEQ ID NO: 1 (Achromobacter xylosoxidans)”, for which the Km in series [12] turned out to be 2530 µM.

B1: D-aminoacylase produced with the modified D-aminoacylase gene: wild-type amino acid sequence (SEQ ID NO: 1) expressed from codon-modified gene SEQ ID NO: 3 in plasmid pSL-ADD6 (protein)
chain: MSQSDSQPFDLLLAGGTLIDGSNTPGRRADLGVRGDRIAAIGDLSDAAAHTRVDVSGLVVAPGFIDSHTHDDNYLLRRRDMTPKISQGVTTVVTGNCGISLAPLAHANPPAPLDLLDEGGSYRFERFADYLDALRATPAAVNAACMVGHSTLRAAVMPDLQRAATDEEIAAMRDLAEEAMASGAIGISTGAFYPPAARATTEEIIEVCRPLSAHGGIYATHMRDEGEHIVAALEETFRIGRELDVPVVISHHKVMGQPNFGRSRETLPLIEAAMARQDVSLDAYPYVAGSTMLKQDRVLLAGRTIITWCKPFPELSGRDLDEVAAERGKSKYDVVPELQPAGAIYFMMDEPDVQRILAFGPTMIGSDGLPHDERPHPRLWGTFPRVLGHYARDLGLFPLETAVWKMTGLTAARFGLAGRGQLQAGYFADLVVFDPATVADTATFEHPTERAAGIHSVYVNGAPVWQEQAFTGQHAGRVLARTAA
modifications: Alcaligenes denitrificans subsp. xylosoxydans MI-4
Turning to B1, the “D-aminoacylase activity of cell extract” value in [13] is 86 U/mg.
